In US10364245B2 (CHIESI FARMACEUTICI S.p.A., priority 2017, dated 2019):

Tests used:
[1] = target: T1, p38 alpha (Homo sapiens, UniProt Q16539); test: P38 alpha enzyme inhibition assay (Alphascreen kinase activity assay); type: biochemical; settings: 100 pM p38 alpha, 2 hours preincubation at 25° C., 250 μM ATP, ATF-2 fusion protein; read-out: p38α inhibition
T1 construct: purchased Invitrogen PV3304
Outline: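 Phosphorylation of ATF-2 fusion protein (0.3 μg/ml) read by AlphaScreen with anti-phospho-ATF2 antibody after 1 h kinase reaction at 25 °C, initiated by 250 μM ATP. Compounds first incubated 2 h at 25 °C with 100 pM p38 alpha in pH 7.5 HEPES buffer, 1% DMSO. IC50 derived from concentration-response data.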

[2] = tested on: Peripheral Blood Mononuclear Cells (PBMCs), TNFα release; test: LPS-stimulated PBMC TNFα release assay; type: cell-based; settings: human PBMC, LPS (10 ng/ml), 18 h, compound 1 h before LPS; read-out: LPS-stimulated PBMC TNFα release inhibition
Outline: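 TNFα in cell-free supernatant, read on MSD plates, gave % inhibition curves and IC50 (≥3 separate experiments). Healthy-donor PBMCs had 1 h compound exposure at 37 °C in 1% FBS medium, then 18 h stimulation with 10 ng/ml LPS, after a 3 h serum-free rest.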

T1 sequence (Q16539 whole entry, the tested form may be a part): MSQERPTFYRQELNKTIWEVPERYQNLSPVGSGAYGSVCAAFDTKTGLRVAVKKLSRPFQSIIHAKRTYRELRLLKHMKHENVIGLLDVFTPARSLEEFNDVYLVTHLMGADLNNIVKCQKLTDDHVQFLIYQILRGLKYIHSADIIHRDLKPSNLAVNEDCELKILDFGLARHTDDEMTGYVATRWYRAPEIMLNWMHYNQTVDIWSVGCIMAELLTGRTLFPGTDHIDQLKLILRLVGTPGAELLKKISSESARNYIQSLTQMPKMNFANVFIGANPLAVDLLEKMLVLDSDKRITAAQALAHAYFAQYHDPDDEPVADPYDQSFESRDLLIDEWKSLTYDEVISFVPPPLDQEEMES

SMILES: CN1CCN(C(=O)c2nc(NC(=O)N[C@H]3CC[C@@H](Oc4ccc5nnc(C(C)(C)C)n5c4)c4ccccc43)cc(C(C)(C)C)n2)CC1 [Example 128, 1-(6-(tert-butyl)-2-(4-methylpiperazine-1-carbonyl)pyrimidin-4-yl)-3-((1S,4R)-4-((3-(tert-butyl)-[1,2,4]triazolo[4,3-a]pyridin-6-yl)oxy)-1,2,3,4-tetrahydronaphthalen-1-yl)urea]
- IC50 [1]: < 1 nM
- IC50 [2]: > 5 nM

SMILES: CN1CC[C@@H](NC(=O)c2nc(NC(=O)N[C@H]3CC[C@@H](Oc4ccc5nnc(C(C)(C)C)n5c4)c4ccccc43)cc(C(C)(C)C)n2)C1 [Example 129, 4-(tert-butyl)-6-(3-((1S,4R)-4-((3-(tert-butyl)-[1,2,4]triazolo[4,3-a]pyridin-6-yl)oxy)-1,2,3,4-tetrahydronaphthalen-1-yl)ureido)-N-((R)-1-methylpyrrolidin-3-yl)pyrimidine-2-carboxamide]
- IC50 [1]: < 1 nM
- IC50 [2]: > 5 nM

SMILES: CN(C)CCOCCNC(=O)c1nc(NC(=O)N[C@H]2CC[C@@H](Oc3ccc4nnc(C(C)(C)C)n4c3)c3ccccc32)cc(C(C)(C)C)n1 [Example 130, 4-(tert-butyl)-6-(3-((1S,4R)-4-((3-(tert-butyl)-[1,2,4]triazolo[4,3-a]pyridin-6-yl)oxy)-1,2,3,4-tetrahydronaphthalen-1-yl)ureido)-N-(2-(2-(dimethylamino)ethoxy)-ethyl)pyrimidine-2-carboxamide]
- IC50 [1]: < 1 nM
- IC50 [2]: > 5 nM

SMILES: CCC(C)(C)c1nnc2ccc(O[C@@H]3CC[C@H](NC(=O)Nc4cc(C(C)(C)C)nc(C(=O)NCCN5CCOCC5)n4)c4ccccc43)cn12 [Example 131, 4-(tert-butyl)-N-(2-morpholinoethyl)-6-(3-((1S,4R)-4-((3-(tert-pentyl)-[1,2,4]triazolo[4,3-a]pyridin-6-yl)oxy)-1,2,3,4-tetrahydronaphthalen-1-yl)ureido)pyrimidine-2-carboxamide]
- IC50 [1]: < 1 nM
- IC50 [2]: 1 to 5 nM

SMILES: CCC(C)(C)c1nnc2ccc(O[C@@H]3CC[C@H](NC(=O)Nc4cc(C(C)(C)C)nc(C(=O)NCCCN5CCOCC5)n4)c4ccccc43)cn12 [Example 132, 4-(tert-butyl)-N-(3-morpholinopropyl)-6-(3-((1S,4R)-4-((3-(tert-pentyl)-[1,2,4]triazolo[4,3-a]pyridin-6-yl)oxy)-1,2,3,4-tetrahydronaphthalen-1-yl)ureido)pyrimidine-2-carboxamide]
- IC50 [1]: < 1 nM
- IC50 [2]: 1 to 5 nM

SMILES: CN1CCC(NC(=O)c2nc(NC(=O)N[C@H]3CC[C@@H](Oc4ccc5nnc(C(C)(C)C)n5c4)c4ccccc43)cc(C(C)(C)C)n2)CC1 [Example 134, 4-(tert-butyl)-6-(3-((1S,4R)-4-((3-(tert-butyl)-[1,2,4]triazolo[4,3-a]pyridin-6-yl)oxy)-1,2,3,4-tetrahydronaphthalen-1-yl)ureido)-N-(1-methylpiperidin-4-yl)pyrimidine-2-carboxamide]
- IC50 [1]: 1 to 10 nM
- IC50 [2]: > 5 nM

SMILES: CN1CC[C@H](NC(=O)c2nc(NC(=O)N[C@H]3CC[C@@H](Oc4ccc5nnc(C(C)(C)C)n5c4)c4ccccc43)cc(C(C)(C)C)n2)C1 [Example 136, 4-(tert-butyl)-6-(3-((1S,4R)-4-((3-(tert-butyl)-[1,2,4]triazolo[4,3-a]pyridin-6-yl)oxy)-1,2,3,4-tetrahydronaphthalen-1-yl)ureido)-N-((S)-1-methylpyrrolidin-3-yl)pyrimidine-2-carboxamide]
- IC50 [1]: < 1 nM
- IC50 [2]: > 5 nM

SMILES: COCCN(C)CCNC(=O)c1nc(NC(=O)N[C@H]2CC[C@@H](Oc3ccc4nnc(C5(C)CC5)n4c3)c3ccccc32)cc(C(C)(C)C)n1 [Example 137, 4-(tert-butyl)-N-(2-((2-methoxyethyl)(methyl)-amino)ethyl)-6-(3-((1S,4R)-4-((3-(1-methylcyclopropyl)-[1,2,4]triazolo[4,3-a]pyridin-6-yl)oxy)-1,2,3,4-tetrahydronaphthalen-1-yl)ureido)pyrimidine-2-carboxamide]
- IC50 [1]: 1 to 10 nM
- IC50 [2]: > 5 nM

SMILES: COC1CN(CCNC(=O)c2nc(NC(=O)N[C@H]3CC[C@@H](Oc4ccc5nnc(C6(C)CC6)n5c4)c4ccccc43)cc(C(C)(C)C)n2)C1 [Example 138, 4-(tert-butyl)-N-(2-(3-methoxyazetidin-1-yl)ethyl)-6-(3-((1S,4R)-4-((3-(1-methylcyclopropyl)-[1,2,4]triazolo[4,3-a]pyridin-6-yl)oxy)-1,2,3,4-tetrahydronaphthalen-1-yl)ureido)pyrimidine-2-carboxamide]
- IC50 [1]: < 1 nM
- IC50 [2]: > 5 nM

SMILES: CN1CCN(C(C)(C)c2nnc3ccc(O[C@@H]4CC[C@H](NC(=O)Nc5cc(C(C)(C)C)nc(C(=O)NCCO)n5)c5ccccc54)cn23)CC1 [Example 139, 4-(tert-butyl)-N-(2-hydroxyethyl)-6-(3-((1S,4R)-4-((3-(2-(4-methylpiperazin-1-yl)propan-2-yl)-[1,2,4]triazolo[4,3-a]pyridin-6-yl)oxy)-1,2,3,4-tetrahydronaphthalen-1-yl)ureido)pyrimidine-2-carboxamide]
- IC50 [1]: 1 to 10 nM
- IC50 [2]: > 5 nM

SMILES: CC(C)(C)c1cc(NC(=O)N[C@H]2CC[C@@H](Oc3ccc4nnc(C(C)(C)C)n4c3)c3ccccc32)nc(C(=O)NCCN2CCC2)n1 [Example 140, N-(2-(azetidin-1-yl)ethyl)-4-(tert-butyl)-6-(3-((1S,4R)-4-((3-(tert-butyl)-[1,2,4]triazolo[4,3-a]pyridin-6-yl)oxy)-1,2,3,4-tetrahydronaphthalen-1-yl)ureido)pyrimidine-2-carboxamide]
- IC50 [1]: < 1 nM
- IC50 [2]: > 5 nM

SMILES: CCN(CC)c1nnc2ccc(O[C@@H]3CC[C@H](NC(=O)Nc4cc(C(C)(C)C)nc(C(=O)NCCN(C)C)n4)c4ccccc43)cn12 [Example 142, 4-(tert-butyl)-6-(3-((1S,4R)-4-((3-(diethylamino)-[1,2,4]triazolo[4,3-a]pyridin-6-yl)oxy)-1,2,3,4-tetrahydronaphthalen-1-yl)ureido)-N-(2-(dimethylamino)ethyl)-pyrimidine-2-carboxamide]
- IC50 [1]: < 1 nM
- IC50 [2]: 1 to 5 nM

SMILES: CCN(CC)c1nnc2ccc(O[C@@H]3CC[C@H](NC(=O)Nc4cc(C(C)(C)C)nc(C(=O)NCC(C)(C)N(C)C)n4)c4ccccc43)cn12 [Example 143, 4-(tert-butyl)-6-(3-((1S,4R)-4-((3-(diethylamino)-[1,2,4]triazolo[4,3-a]pyridin-6-yl)oxy)-1,2,3,4-tetrahydronaphthalen-1-yl)ureido)-N-(2-(dimethylamino)-2-methylpropyl)pyrimidine-2-carboxamide]
- IC50 [1]: < 1 nM
- IC50 [2]: 1 to 5 nM

SMILES: CN(CCO)CCNC(=O)c1nc(NC(=O)N[C@H]2CC[C@@H](Oc3ccc4nnc(C5(C)CC5)n4c3)c3ccccc32)cc(C(C)(C)C)n1 [Example 145, 4-(tert-butyl)-N-(2-((2-hydroxyethyl)(methyl)-amino)ethyl)-6-(3-((1S,4R)-4-((3-(1-methylcyclopropyl)-[1,2,4]triazolo[4,3-a]pyridin-6-yl)oxy)-1,2,3,4-tetrahydronaphthalen-1-yl)ureido)pyrimidine-2-carboxamide]
- IC50 [1]: < 1 nM
- IC50 [2]: > 5 nM

SMILES: CC[C@H](C)c1nnc2ccc(O[C@@H]3CC[C@H](NC(=O)Nc4cc(C(C)(C)C)nc(C(=O)NCCN(C)CC)n4)c4ccccc43)cn12 [Example 146, 4-(tert-butyl)-6-(3-((1S,4R)-4-((3-((S)-sec-butyl)-[1,2,4]triazolo[4,3-a]pyridin-6-yl)oxy)-1,2,3,4-tetrahydronaphthalen-1-yl)ureido)-N-(2-(ethyl(methyl)amino)-ethyl)pyrimidine-2-carboxamide]
- IC50 [1]: < 1 nM
- IC50 [2]: 1 to 5 nM
